Assay results reported in patent publication US5218096A, “Lactoneotrehalose, and its preparation and uses” (Kabushiki Kaisha Hayashibara Seibutsu Kagaku Kenkyujo, priority 1990, dated 1993).
≈ marks a conversion by molar mass, not a printed value. Like-named read-outs stand apart in the source and are kept apart here.

Experiments:
[1] = tested on: Bacteroides distasonis JCM 5825; assay: Assimilation by intestinal microorganism; assay type: cell-based; conditions: 0.5 w/v % saccharide, PYF broth, 37° C., 96 hours
Description: (§1) The resultant broth was diluted 5-fold, and the turbidity of the diluted solution was determined at 750 nm in 1-cm cell cuvette. The growth of the intestinal microorganisms and the assimilability of lactoneotrehalose were both evaluated with the turbidity. As control, glucose and lactose were used in place of lactoneotrehalose.

[2] = tested on: Lactobacillus acidophilus JCM 1132; assay: Assimilation by intestinal microorganism; assay type: cell-based; conditions: 0.5 w/v % saccharide, PYF broth, 37° C., 96 hours
Description: as §1

[3] = tested on: Bifidobacterium animalis JCM 1190; assay: Assimilation by intestinal microorganism; assay type: cell-based; conditions: 0.5 w/v % saccharide, PYF broth, 37° C., 96 hours
Description: as §1

[4] = tested on: Bifidobacterium adolescentis JCM 1275; assay: Assimilation by intestinal microorganism; assay type: cell-based; conditions: 0.5 w/v % saccharide, PYF broth, 37° C., 96 hours
Description: as §1

[5] = tested on: Eubacterium aerofaciens ATCC 25986; assay: Assimilation by intestinal microorganism; assay type: cell-based; conditions: 0.5 w/v % saccharide, PYF broth, 37° C., 96 hours
Description: as §1

[6] = tested on: Bifidobacterium infantis JCM 1222; assay: Assimilation by intestinal microorganism; assay type: cell-based; conditions: 0.5 w/v % saccharide, PYF broth, 37° C., 96 hours
Description: as §1

[7] = tested on: Escherichia coli IFO 3301; assay: Assimilation by intestinal microorganism; assay type: cell-based; conditions: 0.5 w/v % saccharide, PYF broth, 37° C., 96 hours
Description: as §1

[8] = tested on: Streptococcus faecalis IAM 10065; assay: Assimilation by intestinal microorganism; assay type: cell-based; conditions: 0.5 w/v % saccharide, PYF broth, 37° C., 96 hours
Description: as §1

[9] = tested on: Bifidobacterium longum JCM 1217; assay: Assimilation by intestinal microorganism; assay type: cell-based; conditions: 0.5 w/v % saccharide, PYF broth, 37° C., 96 hours
Description: as §1

[10] = tested on: Lactobacillus plantarum IFO 3070; assay: Assimilation by intestinal microorganism; assay type: cell-based; conditions: 0.5 w/v % saccharide, PYF broth, 37° C., 96 hours
Description: as §1

[11] = tested on: Eubacterium limosum JCM 6421; assay: Assimilation by intestinal microorganism; assay type: cell-based; conditions: 0.5 w/v % saccharide, PYF broth, 37° C., 96 hours
Description: as §1

[12] = tested on: Peptostreptococcus prevotii ATCC 9321; assay: Assimilation by intestinal microorganism; assay type: cell-based; conditions: 0.5 w/v % saccharide, PYF broth, 37° C., 96 hours
Description: as §1

[13] = tested on: Bifidobacterium breve JCM 1192; assay: Assimilation by intestinal microorganism; assay type: cell-based; conditions: 0.5 w/v % saccharide, PYF broth, 37° C., 96 hours
Description: as §1

[14] = tested on: Clostridium sporogenes JCM 1416; assay: Assimilation by intestinal microorganism; assay type: cell-based; conditions: 0.5 w/v % saccharide, PYF broth, 37° C., 96 hours
Description: as §1

Coloring reaction = assay type: physicochemical
[15] = Digestion test in vitro, hydrolysis rate; assay type: in vitro ADME; conditions: small intestinal mucosa enzyme; in vitro, enzyme of small intestinal mucous membrane; read-out: hydrolysis rate (the ratio of reducing sugars against total sugars)
Description: (§2) In accordance with the method reported in Okada et al., Journal of Japanese Society of Nutrition and Food Science, Vol.43, No.1, pp.23-29 (1990), a crystalline lactoneotrehalose specimen prepared by the method in Experiment 1 was tested for its digestibility in vitro, and the digestibility was evaluated based on the hydrolysis rate (the ratio of reducing sugars against total sugars).

[16] = tested on: Enzyme of small intestinal mucous membrane; assay: Digestion test in vitro, hydrolysis rate; assay type: in vitro ADME; conditions: conclusion from Table 1
Description: as §2

[17] = Digestion test in vitro, hydrolysis rate; assay type: in vitro ADME; conditions: gastric juice, read-out: hydrolysis rate (the ratio of reducing sugars against total sugars)
Description: as §2

[18] = Hygroscopicity, deliquescence and moisture content; assay type: physicochemical
From the text: (9) Physical properties and color Colorless and transparent crystal having a true specific gravity of 1.59.

Heat of dissolution = assay type: physicochemical
[19] = Acidity of aqueous solution; assay type: physicochemical
mice = assay: Acute toxicity test, oral
From the text: A crystalline lactoneotrehalose specimen, prepared by the method in Experiment 1, was orally administered to 7 week-old dd mice for acute toxicity test.

[20] = Digestion test in vitro, hydrolysis rate; assay type: in vitro ADME; conditions: salivary amylase, read-out: hydrolysis rate (the ratio of reducing sugars against total sugars)
Description: as §2

[21] = Digestion test in vitro, hydrolysis rate; assay type: in vitro ADME; conditions: amylopsin, read-out: hydrolysis rate (the ratio of reducing sugars against total sugars)
Description: as §2

[22] = tested on: microorganisms of the genus Bifidobacterium; assay: Assimilation by intestinal microorganism, overall finding; assay type: cell-based; conditions: conclusion from Table 3
Description: as §1

Solubility = assay type: physicochemical

## O=C[C@H](O)[C@@H](O)[C@H](O)[C@H](O)CO [Glucose, glucose]
[1]
  Judgement of turbidity (A750 × 5): ± (0.1 or higher but less than 0.15)
[2]
  Judgement of turbidity (A750 × 5): + (0.15 or higher but less than 0.2)
[3]
  Judgement of turbidity (A750 × 5): ++ (0.2 or higher but less than 0.3)
[4]
  Judgement of turbidity (A750 × 5): ++ (0.2 or higher but less than 0.3)
[5]
  Judgement of turbidity (A750 × 5): +++ (0.3 or higher)
[6]
  Judgement of turbidity (A750 × 5): ++ (0.2 or higher but less than 0.3)
[7]
  Judgement of turbidity (A750 × 5): ++ (0.2 or higher but less than 0.3)
[8]
  Judgement of turbidity (A750 × 5): ++ (0.2 or higher but less than 0.3)
[9]
  Judgement of turbidity (A750 × 5): ++ (0.2 or higher but less than 0.3)
[10]
  Judgement of turbidity (A750 × 5): + (0.15 or higher but less than 0.2)
[11]
  Judgement of turbidity (A750 × 5): ± (0.1 or higher but less than 0.15)
[12]
  Judgement of turbidity (A750 × 5): - (less than 0.1)
[13]
  Judgement of turbidity (A750 × 5): ++ (0.2 or higher but less than 0.3)

## OC[C@H]1O[C@@H](O[C@H]2[C@H](O)[C@@H](O)C(O)O[C@@H]2CO)[C@H](O)[C@@H](O)[C@H]1O (stereo partly drawn) [Lactose, O-β-D-galactopyranosyl-(1→4)-D-glucose]
[1]
  Judgement of turbidity (A750 × 5): ± (0.1 or higher but less than 0.15)
[2]
  Judgement of turbidity (A750 × 5): + (0.15 or higher but less than 0.2)
[3]
  Judgement of turbidity (A750 × 5): ++ (0.2 or higher but less than 0.3)
[4]
  Judgement of turbidity (A750 × 5): ++ (0.2 or higher but less than 0.3)
[5]
  Judgement of turbidity (A750 × 5): ++ (0.2 or higher but less than 0.3)
[6]
  Judgement of turbidity (A750 × 5): ++ (0.2 or higher but less than 0.3)
[7]
  Judgement of turbidity (A750 × 5): ± (0.1 or higher but less than 0.15)
[8]
  Judgement of turbidity (A750 × 5): + (0.15 or higher but less than 0.2)
[9]
  Judgement of turbidity (A750 × 5): ++ (0.2 or higher but less than 0.3)
[10]
  Judgement of turbidity (A750 × 5): + (0.15 or higher but less than 0.2)
[11]
  Judgement of turbidity (A750 × 5): - (less than 0.1)
[14]
  Judgement of turbidity (A750 × 5): - (less than 0.1)
[12]
  Judgement of turbidity (A750 × 5): - (less than 0.1)
[13]
  Judgement of turbidity (A750 × 5): +++ (0.3 or higher)

## OC[C@H]1O[C@@H](O[C@H]2[C@H](O)[C@@H](O)[C@H](O[C@H]3O[C@H](CO)[C@@H](O)[C@H](O)[C@H]3O)O[C@@H]2CO)[C@H](O)[C@@H](O)[C@H]1O [lactoneotrehalose, O-β-D-galactopyranosyl-(1→4)-O-β-D-glucopyranosyl α-D-glucopyranoside]
Coloring reaction
  Fehling's reaction: Negative
  iodine coloration reaction: Negative
[15]
  metabolised: 60.2%
[16]
  main site of hydrolysis: mainly hydrolyzed by the enzyme from intestinal mucous membrane
[17]
  metabolised: 0%
[18]
  hygroscopicity and deliquescence: Free of hygroscopicity and deliquescence
[18]; Karl Fischer's method, predried in vacuo at 60° C. for 16 hours
  moisture content of crystals: less than 3.0%
Heat of dissolution
  Heat of dissolution: 20.0 cal/g
[19]
  acidity of aqueous solution of the crystal: neutral or slight acidity
mice; 7 week-old dd mice, up to 5 g
  mortality: no mouse died
mice; dd mice, conclusion
  toxicity: extremely low in toxicity
[20]
  metabolised: 0%
[1]
  Judgement of turbidity (A750 × 5): - (less than 0.1)
[2]
  Judgement of turbidity (A750 × 5): ± (0.1 or higher but less than 0.15)
[3]
  Judgement of turbidity (A750 × 5): ++ (0.2 or higher but less than 0.3)
[4]
  Judgement of turbidity (A750 × 5): ++ (0.2 or higher but less than 0.3)
[5]
  Judgement of turbidity (A750 × 5): - (less than 0.1)
[6]
  Judgement of turbidity (A750 × 5): ++ (0.2 or higher but less than 0.3)
[7]
  Judgement of turbidity (A750 × 5): - (less than 0.1)
[8]
  Judgement of turbidity (A750 × 5): - (less than 0.1)
[9]
  Judgement of turbidity (A750 × 5): ++ (0.2 or higher but less than 0.3)
[10]
  Judgement of turbidity (A750 × 5): - (less than 0.1)
[11]
  Judgement of turbidity (A750 × 5): - (less than 0.1)
[14]
  Judgement of turbidity (A750 × 5): - (less than 0.1)
[12]
  Judgement of turbidity (A750 × 5): - (less than 0.1)
[13]
  Judgement of turbidity (A750 × 5): ++ (0.2 or higher but less than 0.3)
[21]
  metabolised: 0%
[22]
  selective utilization by genus Bifidobacterium: selectively utilized at a relatively high-level by microorganisms of the genus Bifidobacterium
Solubility; 0.1N hydrochloric acid
  Solubility in solvents: Readily soluble
Solubility; 0.1N sodium hydroxide
  Solubility in solvents: Readily soluble
Solubility; chloroform
  Solubility in solvents: insoluble
Solubility; ethanol
  Solubility in solvents: scarcely soluble
Solubility; ethyl acetate
  Solubility in solvents: insoluble
Solubility; methanol
  Solubility in solvents: scarcely soluble
Solubility; water
  Solubility in solvents: Readily soluble
Solubility; water, 25° C.
  solubility: 217 mg/mL (≈ 430 mM)
